Measurements from patent publication US10054581B1, “Inhibitors of notch signaling pathway and use thereof in treatment of cancers” (Ecole Polytechnique Federale de Lausanne (EPFL), priority 2011, dated 2018).
“Also recorded” adds a separate entry of the source.

Legend:
[1] = test system: Notch2-intracellular domain (N2-ICD); test: N2-ICD mediated pathway activation, luciferase reporter; format: cell-based
[2] = Body weight changes in mice; format: in vivo, mouse; conditions: 25 mg/kg, 5 consecutive days
Protocol: C57B16 mice were intra peritoneal (i.p) injected with oil or 25 mg/kg of I3 or 10 mg/kg of CPA, once a day for 5-7 days. Mice were weighed using a weighing scale on day 0, day 3 and day 5. On day 8, intestinal tissue, spleen and thymus were harvested for analyses.
In in vitro culture assays, chemical compound 6-(4-Tert-Butylphenoxy)Pyridin-3-Amine (I3) was able to block Notch1 and Notch2 mediated pathway activation. Therefore, Applicants hypothesized that treatment of mice with 6-(4-Tert-Butylphenoxy)Pyridin-3-Amine (I3) may lead to a goblet cell metaplasia of the intestine. To test this hypothesis, mice were intra peritoneally (i.p) injected with 25 mg/kg of 6-(4-Tert-Butylphenoxy)Pyridin-3-Amine (I3) for 7 consecutive days. On day 8, animals were sacrificed and intestinal tissues were fixed and embedded in paraffin. Histological analyses were carried out using Alcian blue to stain for goblet cells. […] Similarly, the effect of 6-(4-Tert-Butylphenoxy)Pyridin-3-Amine (I3) on body weight changes was also monitored. Mice were injected for 5 consecutive days with 25 mg/kg of 6-(4-Tert-Butylphenoxy)Pyridin-3-Amine (I3) and the changes in body mass were recorded.

[3] = test system: KOPTK1; test: Annexin V apoptosis, KOPTK1; format: cell-based, human; conditions: 10 μM, 7 days
Protocol: (§1) FIGS. 6A-6D show 6-(4-Tert-Butylphenoxy)Pyridin-3-Amine (I3) induces G0/G1 cell cycle arrest and apoptosis in human T cell acute lymphoblastic leukemia cell lines and human breast cancer cell line HCC1187. […] Percentage of Annexin V positive (apoptotic) cell population was measured using flow cytometry.
To quantitate the percentage of apoptotic cells, AnnexinV and 7AAD staining was performed. Thymic cells were suspended in 300 μl of 1× AnnexinV binding buffer (BD Biosciences, San Diego, USA) and incubated with 10 μl of AnnexinV-Cy5 antibody and 10 μl of 7AAD (BD Biosciences, San Diego, USA). Samples were incubated for 15 minutes at room temperature. FACS was performed with in one hour of antibody staining.
This 6-(4-Tert-Butylphenoxy)Pyridin-3-Amine (I3) mediated proliferative arrest could be due to induction of apoptosis or cell cycle arrest during different phases of cell cycle. […] Therefore to further elucidate the mechanisms responsible for 6-(4-Tert-Butylphenoxy)Pyridin-3-Amine (I3) mediated proliferative arrest cell cycle and apoptosis analyses were carried out. […] To investigate cell death, Annexin V staining was performed and proportion of apoptotic (AnnexinV positive) cell population was determined by flow cytometry analyses after 7 days of treatment.

[4] = test system: MZB cells in the spleen; test: Marginal Zone B cell development in the spleen (flow cytometry); format: in vivo, mouse; conditions: 25 mg/kg, 7 consecutive days, analysed day 8
Protocol: FIGS. 7A-7C show 6-(4-Tert-Butylphenoxy)Pyridin-3-Amine (I3) mimics genetic loss of Notch2 signalling phenotype in the spleen. Loss of Notch signalling in the spleen leads to a reduction in Marginal Zone B cells (MZB) cells in the spleen. […] Spleens were analyzed on day 8. Using B220 specific antibodies, B cells in the spleen were identified. MZB cells within the B cell compartment were detected using antibodies against CD23 and CD21 cell surface markers.
Fluorescence activated cell sorting (FACS) analyses were performed on CyAn™ ADP instrument platform for flow cytometry at Flow cytometry core facility, EPFL. DL4 and Notch1 expression in DL4- and N1-HeLa cells was determined using anti-DL4 and anti-N1 antibodies respectively. T cell development in the thymus was investigated using antibodies against CD4, CD8 and TCRβ. MZB cell development was monitored using antibodies against B220, CD21 and CD23. In brief, a single cell suspension was prepared from thymus and spleen. […]
Applicants hypothesized that 6-(4-Tert-Butylphenoxy)Pyridin-3-Amine (I3) mediated inhibition of Notch2 signalling should lead to a block in MZB cell development in the spleen. MZB cell development was assessed by flow cytometry staining of splenocytes with antibodies directed against B220, CD21 and CD23.

[5] = test system: KOPTK1; test: Cell cycle analysis (Ki67 and Hoechst stain), KOPTK1; format: cell-based, human; conditions: 10 μM
Protocol: as §1
In addition to induction of apoptosis, the proliferative arrest observed in 6-(4-Tert-Butylphenoxy)Pyridin-3-Amine (I3) treated human leukemic cell lines and breast cancer cell line also appears to be due to cell cycle arrest in G0/G1 phase of the cell cycle. Leukemic cell lines (RPMI8402, KOPTK1 and TALL1) and breast cancer cell lines were treated with 6-(4-Tert-Butylphenoxy)Pyridin-3-Amine (I3) for 48 hours and cell cycle status was determined using Ki67 and Hoechst stain.

## CC(C)(C)c1ccc(Oc2ccc(N)cn2)cc1 [I3, 6-(4-Tert-Butylphenoxy)Pyridin-3-Amine]
[1]
  pathway activation by N2-ICD: could also block pathway activation by Notch1-intracellular domain (NICD) and Notch2-intracellular domain (N2-ICD); also recorded: inhibits pathway activation via intracellular domains of Notch1 (NICD) and Notch2 (N2-ICD)
[2]
  body weight: did not cause a loss in the body weight
[3]
  apoptosis (Annexin V positive cells): induces significant apoptosis
[4]
  absolute numbers of MZB cells in the spleen: loss of MZB cell population in the spleen also reflects in the absolute number of MZB cells; also recorded: causes a reduction the percentage and absolute numbers of MZB cells in the spleen
  percentage of MZB cells in the spleen: leads to a reduction in the percentage of MZB cell population in the spleen; also recorded: causes a significant reduction in the percentage of MZB cells in the spleen; also recorded: causes a reduction the percentage and absolute numbers of MZB cells in the spleen
[5]; 48 hours
  cell cycle status: induces an arrest in the G0/G1 phase of the cell cycle
[5]; stated jointly for RPMI8402, KOPTK1 and TALL1
  increase in cells arrested in G0/G1 phase of the cell cycle: 20-30%
